Reference: patent publication US9925193B2, “Thioether derivatives as protein kinase inhibitors” (KTB TUMORFORSCHUNGSGESELLSCHAFT MBH, priority 2012, dated 2018)

Assays:
IGF1-R = target: T1, IGF1-R (Homo sapiens, UniProt P08069); test: 33PanQinase Activity Assay, IGF1-R; format: biochemical; conditions: recombinant human protein kinase, 1 μM [γ-33P]-ATP, 30° C. 80 minutes
T1 construct: made in house; host or cells: Sf9 insect cells (baculovirus)
Description: (§1) The effect of the thioether derivatives 8a-v and 9a-i was tested on recombinant, human protein kinases. All protein kinases were expressed in Sf9 insect cells as human recombinant GST-fusion proteins or as His-tagged proteins by means of the baculovirus expression system. Protein kinases were purified by affinity chromatography using either GSH-agarose or Ni-NTH-agarose. The purity and identity of each was checked by SDS-PAGE/silver staining and by western blot analysis with specific antibodies.
(§2) A proprietary protein kinase assay (^33PanQinase® Activity Assay) was used for measuring the kinase activity. All kinase assays were performed in 96-well FlashPlates™ in a 50 μl reaction volume. The assay for all enzymes contained 60 mM HEPES-NaOH, pH 7.5, 3 mM MgCl2, 3 mM MnCl2, 3 μM Na-orthovanadate, 1.2 mM DTT, 50 μg/ml PEG20000 and 1 μM [γ-^33P]-ATP (approx. 5×10^5 cpm per well).
(§3) The reaction cocktails were incubated at 30° C. for 80 minutes. The reaction was stopped with 50 μl of 2% (v/v) H3PO4, plates were aspirated and washed two times with 200 μl of 0.9% (w/v) NaCl. Incorporation of ^33Pi was determined with a microplate scintillation counter. All assays were performed with a BeckmanCoulter/Sagian robotic system.

VEGF-R2 = target: T2, VEGF-R2 (Homo sapiens, UniProt P35968); test: 33PanQinase Activity Assay, VEGF-R2; format: biochemical; conditions: recombinant human protein kinase, 1 μM [γ-33P]-ATP, 30° C. 80 minutes
T2 construct: made in house; host or cells: Sf9 insect cells (baculovirus)
T2 sequence (P35968 20-1356): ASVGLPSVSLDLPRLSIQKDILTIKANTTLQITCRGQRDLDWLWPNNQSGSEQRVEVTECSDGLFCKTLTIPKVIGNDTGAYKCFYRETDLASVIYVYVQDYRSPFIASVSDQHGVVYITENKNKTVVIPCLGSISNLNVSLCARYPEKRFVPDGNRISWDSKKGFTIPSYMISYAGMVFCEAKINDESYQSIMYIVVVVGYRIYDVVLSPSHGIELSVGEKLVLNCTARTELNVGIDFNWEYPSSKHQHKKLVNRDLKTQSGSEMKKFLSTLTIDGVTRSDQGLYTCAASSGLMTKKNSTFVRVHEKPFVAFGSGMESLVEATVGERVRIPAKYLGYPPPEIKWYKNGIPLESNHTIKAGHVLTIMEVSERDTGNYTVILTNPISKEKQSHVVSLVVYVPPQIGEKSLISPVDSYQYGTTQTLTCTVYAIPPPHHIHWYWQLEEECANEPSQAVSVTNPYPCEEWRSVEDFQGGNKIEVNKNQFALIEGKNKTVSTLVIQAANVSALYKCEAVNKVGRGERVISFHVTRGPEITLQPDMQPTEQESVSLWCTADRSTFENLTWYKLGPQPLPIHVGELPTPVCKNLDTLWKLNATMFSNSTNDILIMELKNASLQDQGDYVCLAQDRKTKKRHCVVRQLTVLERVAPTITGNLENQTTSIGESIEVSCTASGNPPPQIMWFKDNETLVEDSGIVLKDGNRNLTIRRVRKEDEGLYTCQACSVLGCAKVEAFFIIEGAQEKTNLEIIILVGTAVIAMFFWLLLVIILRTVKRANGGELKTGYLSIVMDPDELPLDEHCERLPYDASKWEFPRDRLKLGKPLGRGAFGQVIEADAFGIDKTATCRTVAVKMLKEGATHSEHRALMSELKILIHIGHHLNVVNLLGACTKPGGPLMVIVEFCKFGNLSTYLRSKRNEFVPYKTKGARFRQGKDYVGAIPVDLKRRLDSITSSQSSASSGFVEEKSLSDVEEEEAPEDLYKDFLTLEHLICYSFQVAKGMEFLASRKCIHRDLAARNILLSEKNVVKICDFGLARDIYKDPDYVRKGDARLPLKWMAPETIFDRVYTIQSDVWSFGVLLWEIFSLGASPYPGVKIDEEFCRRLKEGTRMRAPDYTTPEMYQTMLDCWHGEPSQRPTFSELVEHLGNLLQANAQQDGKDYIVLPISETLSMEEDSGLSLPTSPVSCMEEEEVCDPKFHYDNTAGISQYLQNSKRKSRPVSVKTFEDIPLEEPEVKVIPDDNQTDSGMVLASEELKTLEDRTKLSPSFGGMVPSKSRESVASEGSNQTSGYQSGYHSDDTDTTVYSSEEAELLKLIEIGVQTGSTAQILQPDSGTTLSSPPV
Description: as §1, §2, §3

AXL = target: T3, AXL (Homo sapiens, UniProt P30530); test: 33PanQinase Activity Assay, AXL; format: biochemical; conditions: recombinant human protein kinase, 1 μM [γ-33P]-ATP, 30° C. 80 minutes
T3 construct: made in house; host or cells: Sf9 insect cells (baculovirus)
T3 sequence (P30530 26-894): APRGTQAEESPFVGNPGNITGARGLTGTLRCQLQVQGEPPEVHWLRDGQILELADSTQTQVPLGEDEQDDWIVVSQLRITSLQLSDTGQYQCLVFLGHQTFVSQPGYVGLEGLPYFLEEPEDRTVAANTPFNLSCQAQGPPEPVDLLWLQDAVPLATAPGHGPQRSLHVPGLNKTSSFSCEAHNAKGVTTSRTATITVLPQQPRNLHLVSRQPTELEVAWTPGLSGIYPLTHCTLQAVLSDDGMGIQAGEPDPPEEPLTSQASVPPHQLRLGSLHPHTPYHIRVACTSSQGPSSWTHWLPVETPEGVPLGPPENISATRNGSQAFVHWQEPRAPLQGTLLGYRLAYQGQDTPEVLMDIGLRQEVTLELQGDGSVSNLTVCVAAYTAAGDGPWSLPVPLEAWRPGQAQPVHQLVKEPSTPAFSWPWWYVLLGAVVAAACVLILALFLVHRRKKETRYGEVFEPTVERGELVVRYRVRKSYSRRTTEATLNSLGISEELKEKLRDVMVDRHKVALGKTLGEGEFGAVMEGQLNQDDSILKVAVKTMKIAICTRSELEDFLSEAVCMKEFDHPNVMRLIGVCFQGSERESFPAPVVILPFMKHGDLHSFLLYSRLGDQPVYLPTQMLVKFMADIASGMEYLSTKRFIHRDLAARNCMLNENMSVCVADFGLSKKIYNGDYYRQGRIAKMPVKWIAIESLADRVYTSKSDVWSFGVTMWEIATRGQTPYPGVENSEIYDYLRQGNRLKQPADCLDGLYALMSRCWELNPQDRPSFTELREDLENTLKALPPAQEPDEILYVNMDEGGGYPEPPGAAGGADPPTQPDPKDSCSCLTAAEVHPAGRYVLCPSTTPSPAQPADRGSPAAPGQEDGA
Description: as §1, §2, §3

SRC = target: T4, SRC (Homo sapiens, UniProt P12931); test: 33PanQinase Activity Assay, SRC; format: biochemical; conditions: recombinant human protein kinase, 1 μM [γ-33P]-ATP, 30° C. 80 minutes
T4 construct: made in house; host or cells: Sf9 insect cells (baculovirus)
T4 sequence (P12931 whole entry): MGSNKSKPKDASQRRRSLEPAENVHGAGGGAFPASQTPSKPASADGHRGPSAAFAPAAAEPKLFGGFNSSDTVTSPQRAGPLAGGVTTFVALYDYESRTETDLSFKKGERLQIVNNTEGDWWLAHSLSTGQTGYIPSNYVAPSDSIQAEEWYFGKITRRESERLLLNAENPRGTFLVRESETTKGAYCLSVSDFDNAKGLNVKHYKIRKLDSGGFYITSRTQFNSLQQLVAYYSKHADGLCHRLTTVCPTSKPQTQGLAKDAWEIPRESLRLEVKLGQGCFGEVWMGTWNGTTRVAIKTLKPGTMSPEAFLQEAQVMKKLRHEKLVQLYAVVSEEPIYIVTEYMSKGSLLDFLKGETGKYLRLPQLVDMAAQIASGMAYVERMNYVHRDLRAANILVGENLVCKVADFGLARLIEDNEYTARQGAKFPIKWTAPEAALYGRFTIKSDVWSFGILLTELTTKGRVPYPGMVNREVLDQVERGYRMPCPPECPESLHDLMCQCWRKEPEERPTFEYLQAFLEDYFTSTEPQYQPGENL
Description: as §1, §2, §3

FAK = target: T5, FAK (Homo sapiens, UniProt Q05397); test: 33PanQinase Activity Assay, FAK; format: biochemical; conditions: recombinant human protein kinase, 1 μM [γ-33P]-ATP, 30° C. 80 minutes
T5 construct: made in house; host or cells: Sf9 insect cells (baculovirus)
Description: as §1, §2, §3

ALK = target: T6, ALK (Homo sapiens, UniProt Q9UM73); test: 33PanQinase Activity Assay, ALK; format: biochemical; conditions: recombinant human protein kinase, 1 μM [γ-33P]-ATP, 30° C. 80 minutes
T6 construct: made in house; host or cells: Sf9 insect cells (baculovirus)
T6 sequence (Q9UM73 19-1620): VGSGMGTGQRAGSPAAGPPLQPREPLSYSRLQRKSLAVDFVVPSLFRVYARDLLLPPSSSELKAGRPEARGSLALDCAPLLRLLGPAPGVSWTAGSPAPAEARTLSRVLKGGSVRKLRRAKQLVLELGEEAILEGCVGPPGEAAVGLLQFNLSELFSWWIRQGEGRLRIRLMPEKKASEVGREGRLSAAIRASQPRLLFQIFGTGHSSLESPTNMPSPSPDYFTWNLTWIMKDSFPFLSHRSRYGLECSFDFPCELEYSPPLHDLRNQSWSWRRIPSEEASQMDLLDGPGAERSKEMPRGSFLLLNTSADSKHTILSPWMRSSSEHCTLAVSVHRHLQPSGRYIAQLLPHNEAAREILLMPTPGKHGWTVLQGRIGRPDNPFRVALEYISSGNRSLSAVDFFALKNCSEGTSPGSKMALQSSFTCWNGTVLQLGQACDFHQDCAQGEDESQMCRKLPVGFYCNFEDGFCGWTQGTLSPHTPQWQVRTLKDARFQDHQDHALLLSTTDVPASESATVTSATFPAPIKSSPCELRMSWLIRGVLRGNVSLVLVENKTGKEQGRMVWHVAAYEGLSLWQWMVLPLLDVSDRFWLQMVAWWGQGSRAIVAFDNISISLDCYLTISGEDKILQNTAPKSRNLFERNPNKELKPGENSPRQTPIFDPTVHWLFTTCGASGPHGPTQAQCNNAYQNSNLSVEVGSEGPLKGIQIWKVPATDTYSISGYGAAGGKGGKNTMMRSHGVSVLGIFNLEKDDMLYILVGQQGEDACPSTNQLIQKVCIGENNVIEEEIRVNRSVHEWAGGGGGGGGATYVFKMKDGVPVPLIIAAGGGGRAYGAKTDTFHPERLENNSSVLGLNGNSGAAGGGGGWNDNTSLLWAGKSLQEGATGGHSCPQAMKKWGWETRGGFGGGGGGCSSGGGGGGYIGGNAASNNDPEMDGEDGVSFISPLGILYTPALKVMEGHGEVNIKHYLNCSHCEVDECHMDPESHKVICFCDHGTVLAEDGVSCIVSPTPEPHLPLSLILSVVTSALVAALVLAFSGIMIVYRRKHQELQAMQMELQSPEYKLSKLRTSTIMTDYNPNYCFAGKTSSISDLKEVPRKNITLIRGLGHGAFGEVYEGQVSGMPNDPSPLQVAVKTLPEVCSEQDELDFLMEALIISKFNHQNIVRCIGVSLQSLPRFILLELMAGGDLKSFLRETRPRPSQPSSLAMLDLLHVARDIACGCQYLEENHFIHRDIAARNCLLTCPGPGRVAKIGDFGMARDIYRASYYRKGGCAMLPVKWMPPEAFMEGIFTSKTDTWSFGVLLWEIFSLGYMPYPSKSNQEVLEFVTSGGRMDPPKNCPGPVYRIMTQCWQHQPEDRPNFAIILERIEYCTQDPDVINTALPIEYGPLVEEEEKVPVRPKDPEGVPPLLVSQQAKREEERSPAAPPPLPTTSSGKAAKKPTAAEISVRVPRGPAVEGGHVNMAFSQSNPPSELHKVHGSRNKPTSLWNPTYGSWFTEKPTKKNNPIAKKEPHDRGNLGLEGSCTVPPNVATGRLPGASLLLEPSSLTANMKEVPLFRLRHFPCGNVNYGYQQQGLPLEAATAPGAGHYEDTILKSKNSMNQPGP
Description: as §1, §2, §3

PRK1 = target: T7, PRK1 (Homo sapiens, UniProt Q16512); test: 33PanQinase Activity Assay, PRK1; format: biochemical; conditions: recombinant human protein kinase, 1 μM [γ-33P]-ATP, 30° C. 80 minutes
T7 construct: made in house; host or cells: Sf9 insect cells (baculovirus)
Description: as §1, §2, §3

PIM1 = target: T8, PIM1 (Homo sapiens, UniProt P11309); test: 33PanQinase Activity Assay, PIM1; format: biochemical; conditions: recombinant human protein kinase, 1 μM [γ-33P]-ATP, 30° C. 80 minutes
T8 construct: made in house; host or cells: Sf9 insect cells (baculovirus)
T8 sequence (P11309 whole entry): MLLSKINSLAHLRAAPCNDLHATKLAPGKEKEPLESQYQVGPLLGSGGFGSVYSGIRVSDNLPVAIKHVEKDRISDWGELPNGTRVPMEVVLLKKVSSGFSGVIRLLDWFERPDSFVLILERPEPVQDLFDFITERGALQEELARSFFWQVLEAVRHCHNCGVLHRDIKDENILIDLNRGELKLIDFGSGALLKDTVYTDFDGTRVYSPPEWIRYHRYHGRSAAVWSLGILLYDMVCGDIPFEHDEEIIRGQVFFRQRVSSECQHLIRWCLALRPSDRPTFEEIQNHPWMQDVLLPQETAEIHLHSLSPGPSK
Description: as §1, §2, §3

[1] = target: T9, ALK, AXL, FAK, KIT wt, IGF1-R, PIM1, PRK1, SRC and VEGF-R2; test: 33PanQinase Activity Assay, kinase panel summary; format: biochemical, human; conditions: at least two kinases of the panel; read-out: IC50 values on at least two kinases from at least two different molecular mechanisms of tumor progression
T9 construct: other: at le; fused on or other part: GST or His tag
Description: as §1, §2, §3
Thioether derivatives 8a-v and 9a-i show excellent IC50 values.

T1 sequence (P08069 31-1367): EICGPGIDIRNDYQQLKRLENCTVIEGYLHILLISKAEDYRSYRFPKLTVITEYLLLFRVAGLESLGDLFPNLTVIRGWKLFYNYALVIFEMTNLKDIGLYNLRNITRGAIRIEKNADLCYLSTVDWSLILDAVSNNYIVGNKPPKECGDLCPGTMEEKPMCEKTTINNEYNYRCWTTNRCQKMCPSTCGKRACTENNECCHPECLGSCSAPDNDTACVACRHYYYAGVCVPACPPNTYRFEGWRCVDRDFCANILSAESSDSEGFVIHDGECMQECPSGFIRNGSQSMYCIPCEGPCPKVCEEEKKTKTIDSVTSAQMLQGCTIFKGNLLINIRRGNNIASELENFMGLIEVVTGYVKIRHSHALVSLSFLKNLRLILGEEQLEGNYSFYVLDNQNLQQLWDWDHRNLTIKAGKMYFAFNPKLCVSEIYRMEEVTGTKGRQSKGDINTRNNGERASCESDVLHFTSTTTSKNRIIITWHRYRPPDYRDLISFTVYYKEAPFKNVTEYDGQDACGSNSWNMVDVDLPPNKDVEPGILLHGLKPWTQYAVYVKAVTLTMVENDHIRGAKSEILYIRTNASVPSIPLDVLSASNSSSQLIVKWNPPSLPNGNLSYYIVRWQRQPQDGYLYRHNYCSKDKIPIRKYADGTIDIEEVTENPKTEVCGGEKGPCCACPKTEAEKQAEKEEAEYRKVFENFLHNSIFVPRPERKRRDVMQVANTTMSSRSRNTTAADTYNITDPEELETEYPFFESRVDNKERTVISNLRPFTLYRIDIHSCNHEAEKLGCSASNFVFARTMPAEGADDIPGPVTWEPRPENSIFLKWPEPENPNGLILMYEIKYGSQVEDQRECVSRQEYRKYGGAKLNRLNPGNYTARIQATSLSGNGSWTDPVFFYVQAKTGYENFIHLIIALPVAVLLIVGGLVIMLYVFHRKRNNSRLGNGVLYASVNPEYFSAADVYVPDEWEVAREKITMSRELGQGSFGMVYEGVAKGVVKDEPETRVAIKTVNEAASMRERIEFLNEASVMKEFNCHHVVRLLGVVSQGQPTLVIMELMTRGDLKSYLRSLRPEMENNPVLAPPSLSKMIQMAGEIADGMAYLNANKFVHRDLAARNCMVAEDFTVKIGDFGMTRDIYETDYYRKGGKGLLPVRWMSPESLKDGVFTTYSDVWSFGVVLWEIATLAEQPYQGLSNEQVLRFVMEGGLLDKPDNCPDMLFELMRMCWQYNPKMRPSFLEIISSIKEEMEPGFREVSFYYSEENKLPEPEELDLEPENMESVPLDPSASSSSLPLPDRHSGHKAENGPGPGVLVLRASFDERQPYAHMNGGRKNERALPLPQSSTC

SMILES	IC50 (IGF1-R) [µM]	melting point [°C]	IC50 (VEGF-R2) [µM]	IC50 (AXL) [µM]	IC50 (SRC) [µM]	IC50 (FAK) [µM]	IC50 (ALK) [µM]	IC50 (PRK1) [µM]	IC50 (PIM1) [µM]	IC50 [1] [µM]
Fc1ccc(-c2cc3ncnc(Sc4ncc[nH]4)c3s2)cc1 [Compound 8i, 4-[(1H-imidazol-2-yl)thio]-6-(4-fluorophenyl)thieno[3,2-d]pyrimidine]	23.1	204 to 206	20.8	41.5	11	22.1	23.7	86.1	11.1	–
Fc1ccc(-c2cc3ncnc(Sc4ccc(C(F)(F)F)cc4)c3s2)cc1 [Compound 8h, 6-(4-Fluorophenyl)-4-{[4-(trifluoromethyl)phenyl]thio}thieno[3,2-d]pyrimidine]	1.37	172 to 175	1.84	2.94	0.681	2.04	1.03	33.9	11.3	–
Fc1ccc(-c2cc3ncnc(Sc4nnc(-c5ccc(C(F)(F)F)cc5)o4)c3s2)cc1 [Compound 8e, 2-{[6-(4-Fluorophenyl)thieno[3,2-d]pyrimidin-4-yl]thio}-5-[4-(trifluoromethyl)-phenyl]-1,3,4-oxadiazole]	1.03	233 to 235	1.41	2.51	0.54	1.96	0.977	15.4	8.68	–
COc1cccc(Cc2nnc(Sc3ncnc4cc(-c5ccc(F)cc5)sc34)o2)c1 [Compound 8f, 2-{[6-(4-Fluorophenyl)thieno[3,2-d]pyrimidin-4-yl]thio}-5-(3-methoxybenzyl)-1,3,4-oxadiazole]	1.27	166 to 168	1.47	3.2	0.487	1.28	0.651	14.6	10.4	–

Continued, values first:

IC50 (IGF1-R) [µM]	melting point [°C]	IC50 (VEGF-R2) [µM]	IC50 (AXL) [µM]	IC50 (SRC) [µM]	IC50 (FAK) [µM]	IC50 (ALK) [µM]	IC50 (PRK1) [µM]	IC50 (PIM1) [µM]	IC50 [1] [µM]	SMILES
9.15	172 to 174	9.69	22.6	6.35	9.08	6.63	47.3	–	–	Fc1ccc(-c2cc3ncnc(Sc4ccccn4)c3s2)cc1 [Compound 8j, 6-(4-Fluorophenyl)-4-(pyridin-2-ylthio)thieno[3,2-d]pyrimidine]
–	256 to 257	–	> 100	0.7	0.93	0.86	–	–	< 10	FC(F)(F)c1ccc(-c2nnc(Sc3ncnc4[nH]c(-c5ccccc5)nc34)o2)cc1 [Compound 8v, 2-[(8-Phenyl-9H-purin-6-yl)thio]-5-[4-(trifluoromethyl)phenyl]-1,3,4-oxadiazole]
1.5	–	2.24	3.14	0.875	3.01	1.15	38	13.7	–	Fc1ccc(-c2cc3ncnc(Sc4nnc(Cc5ccccc5)o4)c3s2)cc1 [Compound 8l, 2-Benzyl-5-{[6-(4-fluorophenyl)thieno[3,2-d]pyrimidin-4-yl]thio}-1,3,4-oxadiazole]
